The results in this text go back to ChEMBL document CHEMBL3132769, “Fragment growing to retain or alter the selectivity of anchored kinase hinge-binding fragments” (Medchemcomm, 2014).

SMILES strings stand for the structures.

Assay [1] concerns the target MAP kinase-activated protein kinase 2 (Homo sapiens) (UniProt P49137). The experiment in a line: Inhibition of human full length MAPKAPK2 expressed in baculovirus assessed as substrate phosphorylation using fluorescence-labelled peptides as substrate at 8 uM after 90 mins by microfluidic peptide phosphorylation assay.
Assay [2] addresses T1, Serine/threonine-protein kinase D2 (Homo sapiens) (UniProt Q9BZL6).
T1 sequence (whole entry): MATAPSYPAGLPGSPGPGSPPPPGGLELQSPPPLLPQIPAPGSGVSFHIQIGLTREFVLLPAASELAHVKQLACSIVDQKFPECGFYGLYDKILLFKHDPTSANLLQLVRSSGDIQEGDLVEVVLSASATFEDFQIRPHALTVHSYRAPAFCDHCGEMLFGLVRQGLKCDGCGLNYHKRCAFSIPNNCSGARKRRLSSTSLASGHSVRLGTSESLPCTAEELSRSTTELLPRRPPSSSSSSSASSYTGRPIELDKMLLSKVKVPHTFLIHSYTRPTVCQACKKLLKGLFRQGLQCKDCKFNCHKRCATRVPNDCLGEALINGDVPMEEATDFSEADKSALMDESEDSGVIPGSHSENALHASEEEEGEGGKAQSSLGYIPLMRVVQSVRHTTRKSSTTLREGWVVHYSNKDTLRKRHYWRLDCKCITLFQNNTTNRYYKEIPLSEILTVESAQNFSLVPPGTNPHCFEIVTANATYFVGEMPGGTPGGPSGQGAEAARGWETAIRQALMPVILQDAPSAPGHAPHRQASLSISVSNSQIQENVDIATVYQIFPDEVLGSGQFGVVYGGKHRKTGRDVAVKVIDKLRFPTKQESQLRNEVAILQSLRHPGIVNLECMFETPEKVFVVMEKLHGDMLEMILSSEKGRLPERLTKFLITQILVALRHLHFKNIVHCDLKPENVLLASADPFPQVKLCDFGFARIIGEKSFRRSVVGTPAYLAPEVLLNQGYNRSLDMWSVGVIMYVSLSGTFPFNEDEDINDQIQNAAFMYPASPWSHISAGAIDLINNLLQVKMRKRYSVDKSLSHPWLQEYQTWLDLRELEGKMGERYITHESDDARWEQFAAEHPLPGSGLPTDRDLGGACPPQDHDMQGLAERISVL
Kind of assay: Inhibition of human full length PKD2 expressed in baculovirus assessed as substrate phosphorylation using fluorescence-labelled peptides as substrate at 420 uM after 90 mins by microfluidic peptide phosphorylation assay.

Assay [3] has as its target Mitogen-activated protein kinase 3 (Homo sapiens) (UniProt P27361). The experiment in a line: Inhibition of human full length ERK1 expressed in Escherichia coli cell assessed as substrate phosphorylation using fluorescence-labelled peptides as substrate at 0.1 uM after 90 mins by microfluidic peptide phosphorylation assay.
Assay [4] deals with Ribosomal protein S6 kinase alpha-4 (Homo sapiens) (UniProt O75676). The experiment in a line: Inhibition of human full length MSK2 expressed in baculovirus assessed as substrate phosphorylation using fluorescence-labelled peptides as substrate at 9 uM after 90 mins by microfluidic peptide phosphorylation assay.
Sequence of Ribosomal protein S6 kinase alpha-4 (Homo sapiens) (O75676 whole entry, looked up): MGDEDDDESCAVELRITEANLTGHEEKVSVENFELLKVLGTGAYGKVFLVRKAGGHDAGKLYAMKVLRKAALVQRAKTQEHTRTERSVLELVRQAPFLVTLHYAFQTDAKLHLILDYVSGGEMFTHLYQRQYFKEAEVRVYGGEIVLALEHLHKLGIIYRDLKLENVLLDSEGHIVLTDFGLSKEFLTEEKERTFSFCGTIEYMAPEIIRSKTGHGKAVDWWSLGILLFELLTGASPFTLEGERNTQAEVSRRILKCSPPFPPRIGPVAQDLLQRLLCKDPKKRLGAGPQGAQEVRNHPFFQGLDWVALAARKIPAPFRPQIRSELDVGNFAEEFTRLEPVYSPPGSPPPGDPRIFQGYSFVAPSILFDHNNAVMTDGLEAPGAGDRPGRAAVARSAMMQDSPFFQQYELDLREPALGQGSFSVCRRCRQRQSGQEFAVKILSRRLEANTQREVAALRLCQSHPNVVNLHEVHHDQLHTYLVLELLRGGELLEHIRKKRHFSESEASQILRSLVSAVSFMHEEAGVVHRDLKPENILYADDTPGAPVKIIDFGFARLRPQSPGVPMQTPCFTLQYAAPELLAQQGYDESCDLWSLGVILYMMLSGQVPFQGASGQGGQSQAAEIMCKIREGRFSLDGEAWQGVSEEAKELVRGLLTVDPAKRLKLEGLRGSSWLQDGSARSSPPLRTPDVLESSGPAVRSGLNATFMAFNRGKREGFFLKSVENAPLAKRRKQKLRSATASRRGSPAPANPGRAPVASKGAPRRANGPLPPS
For assay [5], the target named is Proto-oncogene tyrosine-protein kinase Src (Homo sapiens) (UniProt P12931). The experiment in a line: Inhibition of human full length SRC expressed in baculovirus assessed as substrate phosphorylation using fluorescence-labelled peptides as substrate at 9 uM after 90 mins by microfluidic peptide phosphorylation assay.
Sequence of Proto-oncogene tyrosine-protein kinase Src (Homo sapiens) (P12931 2-536 limits assumed): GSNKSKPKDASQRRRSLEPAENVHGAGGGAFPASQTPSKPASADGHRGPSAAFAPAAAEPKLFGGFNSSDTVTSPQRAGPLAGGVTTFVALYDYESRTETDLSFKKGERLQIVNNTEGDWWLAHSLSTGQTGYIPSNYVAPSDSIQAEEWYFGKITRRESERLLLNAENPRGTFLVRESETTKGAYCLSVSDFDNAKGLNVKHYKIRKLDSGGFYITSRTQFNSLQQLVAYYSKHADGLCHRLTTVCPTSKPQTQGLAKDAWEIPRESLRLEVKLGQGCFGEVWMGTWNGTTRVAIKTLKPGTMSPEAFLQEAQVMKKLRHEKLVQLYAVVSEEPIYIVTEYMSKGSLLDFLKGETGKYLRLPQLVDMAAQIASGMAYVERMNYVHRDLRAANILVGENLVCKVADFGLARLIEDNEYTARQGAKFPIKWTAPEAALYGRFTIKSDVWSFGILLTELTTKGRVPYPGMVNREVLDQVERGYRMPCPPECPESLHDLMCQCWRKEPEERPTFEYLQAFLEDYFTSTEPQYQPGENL
Assay [6] concerns the target Casein kinase I isoform alpha (Homo sapiens) (UniProt P48729). The experiment in a line: Inhibition of human full length CSNK1A1 expressed in baculovirus assessed as substrate phosphorylation using fluorescence-labelled peptides as substrate at 9 uM after 90 mins by microfluidic peptide phosphorylation assay.
The target of assay [7] is T2, Interleukin-1 receptor-associated kinase 4 (Homo sapiens) (UniProt Q9NWZ3).
T2 sequence (whole entry): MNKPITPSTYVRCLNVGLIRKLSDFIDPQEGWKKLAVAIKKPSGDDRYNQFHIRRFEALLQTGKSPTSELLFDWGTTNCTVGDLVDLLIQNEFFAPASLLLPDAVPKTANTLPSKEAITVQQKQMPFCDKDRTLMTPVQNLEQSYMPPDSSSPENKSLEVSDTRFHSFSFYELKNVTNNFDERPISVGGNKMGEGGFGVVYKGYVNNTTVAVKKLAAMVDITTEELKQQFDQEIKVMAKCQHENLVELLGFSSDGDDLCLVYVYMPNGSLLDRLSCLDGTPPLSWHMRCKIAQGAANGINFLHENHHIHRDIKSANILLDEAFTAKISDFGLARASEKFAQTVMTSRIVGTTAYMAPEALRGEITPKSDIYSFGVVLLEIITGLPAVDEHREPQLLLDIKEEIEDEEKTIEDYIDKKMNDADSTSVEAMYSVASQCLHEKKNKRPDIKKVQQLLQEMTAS
The experiment in a line: Inhibition of human IRAK4 catalytic domain expressed in baculovirus assessed as substrate phosphorylation using fluorescence-labelled peptides as substrate at 9 uM after 90 mins by microfluidic peptide phosphorylation assay.

The target in assay [8] is Protein kinase C theta type (Homo sapiens) (UniProt Q04759). Kind of assay: Inhibition of human truncated PKC theta expressed in baculovirus assessed as substrate phosphorylation using fluorescence-labelled peptides as substrate at 2 uM after 90 mins by microfluidic peptide phosphorylation assay.
Sequence of Protein kinase C theta type (Homo sapiens) (Q04759 whole entry, looked up, the tested form may be a part): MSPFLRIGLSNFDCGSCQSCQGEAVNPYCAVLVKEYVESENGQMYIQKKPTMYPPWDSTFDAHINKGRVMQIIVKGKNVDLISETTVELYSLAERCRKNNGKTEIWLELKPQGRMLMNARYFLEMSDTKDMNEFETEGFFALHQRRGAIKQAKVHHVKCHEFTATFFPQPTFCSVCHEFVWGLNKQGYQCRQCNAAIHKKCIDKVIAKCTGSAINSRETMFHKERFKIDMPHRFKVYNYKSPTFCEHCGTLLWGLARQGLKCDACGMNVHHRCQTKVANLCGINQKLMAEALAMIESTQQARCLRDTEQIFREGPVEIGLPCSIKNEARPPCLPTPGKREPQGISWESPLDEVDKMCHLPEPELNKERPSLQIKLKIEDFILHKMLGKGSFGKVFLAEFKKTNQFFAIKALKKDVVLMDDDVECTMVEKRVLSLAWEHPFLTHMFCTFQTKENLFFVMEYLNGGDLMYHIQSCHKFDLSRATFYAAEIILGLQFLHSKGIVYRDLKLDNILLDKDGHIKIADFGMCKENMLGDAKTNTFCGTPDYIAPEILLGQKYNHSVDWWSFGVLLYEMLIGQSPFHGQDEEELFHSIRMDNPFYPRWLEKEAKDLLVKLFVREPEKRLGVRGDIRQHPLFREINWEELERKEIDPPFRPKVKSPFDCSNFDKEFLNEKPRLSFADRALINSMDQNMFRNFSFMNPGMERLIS
The target of assay [9] is Tyrosine-protein kinase ABL2 (Homo sapiens) (UniProt P42684). Kind of assay: Inhibition of human truncated Arg expressed in baculovirus assessed as substrate phosphorylation using fluorescence-labelled peptides as substrate at 95 uM after 90 mins by microfluidic peptide phosphorylation assay.
Sequence of Tyrosine-protein kinase ABL2 (Homo sapiens) (P42684 whole entry, the tested form may be a part): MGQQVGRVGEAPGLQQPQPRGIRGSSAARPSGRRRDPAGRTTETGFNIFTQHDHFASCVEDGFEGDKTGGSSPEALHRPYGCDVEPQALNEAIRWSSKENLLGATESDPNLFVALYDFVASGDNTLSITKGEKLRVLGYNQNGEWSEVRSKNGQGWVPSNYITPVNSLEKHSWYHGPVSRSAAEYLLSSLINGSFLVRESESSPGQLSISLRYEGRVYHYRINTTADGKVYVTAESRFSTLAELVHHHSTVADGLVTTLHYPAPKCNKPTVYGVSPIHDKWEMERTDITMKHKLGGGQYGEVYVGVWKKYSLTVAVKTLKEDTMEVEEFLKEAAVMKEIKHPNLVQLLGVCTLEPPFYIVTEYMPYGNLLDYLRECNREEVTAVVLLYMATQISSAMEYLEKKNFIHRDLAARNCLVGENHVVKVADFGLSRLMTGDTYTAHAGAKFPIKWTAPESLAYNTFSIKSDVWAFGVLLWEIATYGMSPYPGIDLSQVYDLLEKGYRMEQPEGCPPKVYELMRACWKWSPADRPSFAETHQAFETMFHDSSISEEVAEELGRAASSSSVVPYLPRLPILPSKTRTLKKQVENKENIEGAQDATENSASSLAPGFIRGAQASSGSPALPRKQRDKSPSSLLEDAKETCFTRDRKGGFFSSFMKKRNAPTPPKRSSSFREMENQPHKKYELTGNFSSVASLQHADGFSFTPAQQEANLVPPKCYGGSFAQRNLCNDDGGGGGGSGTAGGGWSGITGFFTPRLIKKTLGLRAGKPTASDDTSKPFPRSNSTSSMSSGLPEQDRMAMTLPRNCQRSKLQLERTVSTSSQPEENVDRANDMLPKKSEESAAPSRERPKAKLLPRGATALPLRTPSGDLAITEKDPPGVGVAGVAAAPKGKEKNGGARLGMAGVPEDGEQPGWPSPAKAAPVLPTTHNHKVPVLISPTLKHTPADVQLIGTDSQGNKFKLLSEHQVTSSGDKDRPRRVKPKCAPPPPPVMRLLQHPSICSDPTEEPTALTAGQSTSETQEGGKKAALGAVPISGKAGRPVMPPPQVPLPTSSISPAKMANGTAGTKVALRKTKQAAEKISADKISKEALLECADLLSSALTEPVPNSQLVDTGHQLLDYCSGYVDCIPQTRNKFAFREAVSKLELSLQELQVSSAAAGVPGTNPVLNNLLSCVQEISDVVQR
The target in assay [10] is T3, Cytoplasmic tyrosine-protein kinase BMX (Homo sapiens) (UniProt P51813).
T3 sequence (whole entry): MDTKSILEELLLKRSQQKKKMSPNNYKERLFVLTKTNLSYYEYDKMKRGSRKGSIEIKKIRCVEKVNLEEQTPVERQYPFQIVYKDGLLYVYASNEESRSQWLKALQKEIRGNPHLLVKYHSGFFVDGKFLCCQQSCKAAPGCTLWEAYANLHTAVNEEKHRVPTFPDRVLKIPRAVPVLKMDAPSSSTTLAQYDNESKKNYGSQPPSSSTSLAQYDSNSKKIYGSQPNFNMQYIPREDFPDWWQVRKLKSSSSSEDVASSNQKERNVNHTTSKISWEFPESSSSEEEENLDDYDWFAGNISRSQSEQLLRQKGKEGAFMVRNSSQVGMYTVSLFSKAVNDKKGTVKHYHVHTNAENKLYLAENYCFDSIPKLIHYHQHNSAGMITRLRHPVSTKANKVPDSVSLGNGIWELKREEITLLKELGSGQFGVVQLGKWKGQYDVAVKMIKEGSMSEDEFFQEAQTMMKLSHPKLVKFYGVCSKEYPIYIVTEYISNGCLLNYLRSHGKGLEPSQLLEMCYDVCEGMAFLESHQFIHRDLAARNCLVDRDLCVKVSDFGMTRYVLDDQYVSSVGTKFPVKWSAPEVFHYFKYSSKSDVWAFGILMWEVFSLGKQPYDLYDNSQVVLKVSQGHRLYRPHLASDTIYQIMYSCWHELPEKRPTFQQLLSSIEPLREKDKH
The experiment in a line: Inhibition of human full length BMX expressed in baculovirus assessed as substrate phosphorylation using fluorescence-labelled peptides as substrate at 1000 uM after 90 mins by microfluidic peptide phosphorylation assay.

Sequence of Mitogen-activated protein kinase 3 (Homo sapiens) (P27361 whole entry): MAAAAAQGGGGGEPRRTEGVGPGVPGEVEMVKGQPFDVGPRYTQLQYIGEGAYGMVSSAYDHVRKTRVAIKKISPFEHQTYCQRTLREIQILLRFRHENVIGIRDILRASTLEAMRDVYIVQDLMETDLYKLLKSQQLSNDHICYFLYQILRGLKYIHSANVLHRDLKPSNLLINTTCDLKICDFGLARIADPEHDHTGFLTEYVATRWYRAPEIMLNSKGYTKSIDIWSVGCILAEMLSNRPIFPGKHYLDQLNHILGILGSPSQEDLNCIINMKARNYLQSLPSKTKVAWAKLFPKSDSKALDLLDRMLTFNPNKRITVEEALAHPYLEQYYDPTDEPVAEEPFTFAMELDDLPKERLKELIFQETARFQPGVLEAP
Sequence of MAP kinase-activated protein kinase 2 (Homo sapiens) (P49137 whole entry, looked up): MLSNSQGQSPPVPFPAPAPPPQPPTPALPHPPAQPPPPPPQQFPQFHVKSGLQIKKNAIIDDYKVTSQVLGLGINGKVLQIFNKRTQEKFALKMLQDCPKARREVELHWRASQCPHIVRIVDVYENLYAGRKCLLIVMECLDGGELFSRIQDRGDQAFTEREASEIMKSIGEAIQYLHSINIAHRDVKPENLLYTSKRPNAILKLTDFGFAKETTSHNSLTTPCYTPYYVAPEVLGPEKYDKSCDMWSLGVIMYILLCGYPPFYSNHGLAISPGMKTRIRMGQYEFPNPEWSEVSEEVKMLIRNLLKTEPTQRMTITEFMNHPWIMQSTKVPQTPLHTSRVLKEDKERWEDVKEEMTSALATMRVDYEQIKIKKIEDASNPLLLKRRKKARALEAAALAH
Sequence of Casein kinase I isoform alpha (Homo sapiens) (P48729 2-337 limits assumed): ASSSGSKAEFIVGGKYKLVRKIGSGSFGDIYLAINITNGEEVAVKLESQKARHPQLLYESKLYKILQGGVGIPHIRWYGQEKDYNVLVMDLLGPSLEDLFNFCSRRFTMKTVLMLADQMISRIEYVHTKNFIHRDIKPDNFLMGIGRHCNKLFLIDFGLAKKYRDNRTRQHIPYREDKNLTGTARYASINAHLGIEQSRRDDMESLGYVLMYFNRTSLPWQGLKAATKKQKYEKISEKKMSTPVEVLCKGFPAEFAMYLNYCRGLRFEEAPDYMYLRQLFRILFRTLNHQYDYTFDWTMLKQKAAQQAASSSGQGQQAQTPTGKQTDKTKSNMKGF

As to `NCC1CCN(c2ncnc3[nH]ccc23)CC1`, the inhibition in assay [1] was found to be 81%. Consider `c1nc(N2CCOCC2)c2nc[nH]c2n1`, for which the inhibition in assay [2] came to 70%.

Take `C[C@H](CN(C)C)Oc1nc(Nc2cc3cccc(Cl)c3cn2)cnc1C#N`: in [3], the inhibition turned out to be 1%.

In the case of `NCC1CN(c2ncnc3[nH]c4cnccc4c23)CCO1` (stereo not given), the inhibition was 52% in assay [4], 19.5% in assay [5], 13% in assay [6] and 56.5% in assay [7].

Consider `NC1CCN(c2ncnc3[nH]ccc23)CC1`, for which, in [8], the inhibition was 13%.

`NCCc1ccc(-c2ncnc3[nH]cnc23)cc1`: the inhibition in [9] turned out to be 50.5%. For `c1cnc2[nH]ccc2c1`, in assay [10], the inhibition came to 22%.
